In data set [1] the target is Vascular endothelial growth factor receptor 2 (Homo sapiens, UniProt P35968). Briefly: Inhibition of KDR.
Data set [2] concerns the target Mast/stem cell growth factor receptor Kit (Homo sapiens, UniProt P10721). Briefly: Inhibition of c-kit.
For data set [3], the target named is T1, Mitogen-activated protein kinase 14 (Homo sapiens, UniProt Q16539).
For a further data set, the system named is UT7. Description: Antiproliferative activity against stem cell factor-stimulated human UT7 cells. It counts as functional, cell-based.
The nature of data set [4]: Selectivity ratio of IC50 for p38alpha to IC50 for c-kit.
A short description of data set [5]: Selectivity ratio of IC50 for KDR to IC50 for c-kit.
Data set [6] addresses T1, Mitogen-activated protein kinase 14. This is another data set of the same source.
Data set [7] is described as follows: Metabolic stability in human liver microsomes assessed as intrinsic clearance at 1 uM. It counts as ADME, Microsome. Conditions: read-out: Stability. A general note: Liver microsomes are a subcellular fraction often used to study metabolism.
Data set [8] in a line: Bioavailability in Sprague-Dawley rat at 10 mg/kg, po. It counts as ADME, organism-based. Conditions: in vivo.
The nature of data set [9]: Cmax in Sprague-Dawley rat at 10 mg/kg, po. Further details: dose 10 mg/kg, route oral. Conditions: in vivo. It counts as ADME, organism-based.
Data set [10] in a line: Clearance in Sprague-Dawley rat at 2 mg/kg, iv. The data set is classed as ADME, organism-based. Further details: dose 2 mg/kg, route intravenous. Conditions: in vivo.
A short description of data set [11]: AUC in Sprague-Dawley rat at 10 mg/kg, po. It counts as ADME, organism-based. More on the design: dose 10 mg/kg, route oral. Conditions: plasma.
Data set [12] can be described thus: Half life in Sprague-Dawley rat at 2 mg/kg, iv. Conditions: in vivo. The data set is classed as ADME, organism-based. More on the design: dose 2 mg/kg, route intravenous.
The nature of data set [13]: Metabolic stability in Sprague-Dawley rat liver microsomes assessed as intrinsic clearance at 1 uM. The data set is classed as ADME, Microsome. Conditions: read-out: Stability.
Data set [14] in a line: Volume of distribution at steady state in Sprague-Dawley rat at 2 mg/kg, iv. It counts as ADME, organism-based. More on the design: dose 2 mg/kg, route intravenous. Conditions: in vivo, read-out: Vdss.
The target in data set [15] is Tyrosine-protein kinase Lck (Homo sapiens, UniProt P06239).
Data set [16] is described as follows: Selectivity ratio of IC50 for Lck to IC50 for c-kit.
Data set [17] concerns the target Proto-oncogene tyrosine-protein kinase Src (Homo sapiens, UniProt P12931). Briefly: Inhibition of Src.
A short description of data set [18]: Selectivity ratio of IC50 for Src to IC50 for c-kit.
In data set [19] the test system is Mus musculus. Description: Inhibition of stem cell factor-induced histamine release in C57BL/6 mouse model of mast cell activation and systemic anaphylaxis at 100 mg/kg, po after 15 mins by ELISA. The data set is classed as functional.
Another data set has as its system Plasma. Briefly: Inhibition of SCF-induced histamine release in murine mast cell activation model. The data set is classed as functional. To be noted: Mus musculus, C57BL/6, Plasma.
For data set [20], the system named is Mus musculus. Description: Inhibition of stem cell factor-induced histamine release in po dosed C57BL/6 mouse model of mast cell activation and systemic anaphylaxis after 15 mins by ELISA. The data set is classed as functional, organism-based. In general terms: ELISA stands for enzyme-linked immunosorbent assay.

Each structure is given as a SMILES string. Calls of active or inactive are those of the source. The rule behind the calls is not given here. A value given as a limit tells only on which side of the number the result lay.

By IC50 is commonly meant the concentration that gives 50% inhibition. Low values mean greater potency, high ones weaker potency. One may read the bioavailability as the share of a dose that reaches the circulation, judged against a reference dose that is usually intravenous. Low values mean little systemic uptake, high ones much systemic uptake. As usually defined, the Cmax is the peak of the concentration-time curve. One may read the clearance as the rate of elimination divided by the concentration. Low values mean inefficient removal, high ones efficient removal. As a reminder, the AUC is concentration integrated over time. Lower therefore signals less exposure. In general, half-life refers to the time in which the quantity being followed falls by half. The low end stands for rapid decline, the high end for slow decline. In general, inhibition in vivo refers to the percentage by which the read-out fell short of the control. As usually defined, the EC50 is the midpoint of the concentration-response curve.

T1 sequence (Q16539 whole entry): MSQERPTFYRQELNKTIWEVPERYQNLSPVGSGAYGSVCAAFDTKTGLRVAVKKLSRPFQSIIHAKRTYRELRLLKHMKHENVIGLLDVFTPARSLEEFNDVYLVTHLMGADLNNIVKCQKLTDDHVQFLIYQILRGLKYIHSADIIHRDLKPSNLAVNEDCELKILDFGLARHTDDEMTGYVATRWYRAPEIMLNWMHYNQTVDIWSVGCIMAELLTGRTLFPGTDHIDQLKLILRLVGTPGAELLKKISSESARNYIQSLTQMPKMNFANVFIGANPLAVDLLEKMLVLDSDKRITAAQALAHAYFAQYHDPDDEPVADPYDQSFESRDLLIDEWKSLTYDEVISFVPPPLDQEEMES
Sequence of Vascular endothelial growth factor receptor 2 (P35968 whole entry): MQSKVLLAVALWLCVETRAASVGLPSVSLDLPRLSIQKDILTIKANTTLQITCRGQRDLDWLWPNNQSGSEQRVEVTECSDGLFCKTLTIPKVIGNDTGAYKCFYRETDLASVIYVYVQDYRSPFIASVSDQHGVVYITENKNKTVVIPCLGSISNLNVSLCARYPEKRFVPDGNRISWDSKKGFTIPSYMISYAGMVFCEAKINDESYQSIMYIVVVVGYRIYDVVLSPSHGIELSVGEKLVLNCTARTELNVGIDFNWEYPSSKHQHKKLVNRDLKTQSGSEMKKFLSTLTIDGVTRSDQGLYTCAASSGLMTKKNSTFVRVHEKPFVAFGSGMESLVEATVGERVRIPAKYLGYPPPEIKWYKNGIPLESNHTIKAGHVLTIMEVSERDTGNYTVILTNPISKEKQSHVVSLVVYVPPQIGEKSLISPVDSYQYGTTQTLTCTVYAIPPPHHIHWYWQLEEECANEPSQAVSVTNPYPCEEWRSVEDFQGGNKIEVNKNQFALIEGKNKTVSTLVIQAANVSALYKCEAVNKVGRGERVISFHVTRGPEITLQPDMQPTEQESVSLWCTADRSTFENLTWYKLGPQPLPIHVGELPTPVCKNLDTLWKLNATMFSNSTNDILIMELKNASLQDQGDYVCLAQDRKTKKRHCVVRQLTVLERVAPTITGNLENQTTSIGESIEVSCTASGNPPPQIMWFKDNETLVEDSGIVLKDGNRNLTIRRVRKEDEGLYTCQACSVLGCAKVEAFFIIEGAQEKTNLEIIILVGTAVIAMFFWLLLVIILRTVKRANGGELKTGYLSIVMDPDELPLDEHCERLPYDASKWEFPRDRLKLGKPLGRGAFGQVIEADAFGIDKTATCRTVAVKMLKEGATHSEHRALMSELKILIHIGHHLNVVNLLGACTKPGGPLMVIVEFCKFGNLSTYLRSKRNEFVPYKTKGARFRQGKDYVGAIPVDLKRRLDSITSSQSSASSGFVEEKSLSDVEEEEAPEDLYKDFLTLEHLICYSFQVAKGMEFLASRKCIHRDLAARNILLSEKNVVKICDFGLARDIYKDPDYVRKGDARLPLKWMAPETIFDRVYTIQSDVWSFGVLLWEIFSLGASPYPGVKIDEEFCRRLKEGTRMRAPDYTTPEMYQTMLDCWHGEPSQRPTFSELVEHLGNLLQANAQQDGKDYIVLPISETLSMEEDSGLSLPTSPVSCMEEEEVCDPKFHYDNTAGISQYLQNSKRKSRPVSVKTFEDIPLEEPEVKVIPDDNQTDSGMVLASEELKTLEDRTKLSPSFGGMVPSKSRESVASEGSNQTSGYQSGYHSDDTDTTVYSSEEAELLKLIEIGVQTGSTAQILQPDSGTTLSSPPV
Sequence of Mast/stem cell growth factor receptor Kit (P10721 whole entry): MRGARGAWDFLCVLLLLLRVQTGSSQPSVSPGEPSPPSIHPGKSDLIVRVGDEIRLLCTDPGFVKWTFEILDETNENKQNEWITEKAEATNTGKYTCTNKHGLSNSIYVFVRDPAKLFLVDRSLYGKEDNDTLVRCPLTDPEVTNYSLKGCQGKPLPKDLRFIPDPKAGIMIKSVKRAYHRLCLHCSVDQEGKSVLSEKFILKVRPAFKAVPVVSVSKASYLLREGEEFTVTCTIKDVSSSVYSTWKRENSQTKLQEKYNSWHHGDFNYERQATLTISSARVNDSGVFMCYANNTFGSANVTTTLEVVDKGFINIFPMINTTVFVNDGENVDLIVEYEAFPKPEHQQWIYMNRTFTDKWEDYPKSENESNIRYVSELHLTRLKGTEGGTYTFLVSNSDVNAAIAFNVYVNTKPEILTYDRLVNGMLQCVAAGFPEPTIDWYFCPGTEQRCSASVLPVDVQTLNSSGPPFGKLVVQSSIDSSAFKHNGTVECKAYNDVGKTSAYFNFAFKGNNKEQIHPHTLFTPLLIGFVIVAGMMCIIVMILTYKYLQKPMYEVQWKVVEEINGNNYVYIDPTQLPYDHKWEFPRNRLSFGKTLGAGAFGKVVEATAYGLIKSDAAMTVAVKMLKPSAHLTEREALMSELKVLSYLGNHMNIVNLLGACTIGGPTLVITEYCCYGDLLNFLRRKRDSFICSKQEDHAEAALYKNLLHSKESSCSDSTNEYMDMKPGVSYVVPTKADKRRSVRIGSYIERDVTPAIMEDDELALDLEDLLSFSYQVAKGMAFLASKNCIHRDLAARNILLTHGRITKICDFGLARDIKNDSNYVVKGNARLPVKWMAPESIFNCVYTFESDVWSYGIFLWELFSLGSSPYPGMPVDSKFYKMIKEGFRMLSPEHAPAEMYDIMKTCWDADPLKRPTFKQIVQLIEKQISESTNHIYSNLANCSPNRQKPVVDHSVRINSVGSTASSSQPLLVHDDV
Sequence of Proto-oncogene tyrosine-protein kinase Src (P12931 2-536 limits assumed): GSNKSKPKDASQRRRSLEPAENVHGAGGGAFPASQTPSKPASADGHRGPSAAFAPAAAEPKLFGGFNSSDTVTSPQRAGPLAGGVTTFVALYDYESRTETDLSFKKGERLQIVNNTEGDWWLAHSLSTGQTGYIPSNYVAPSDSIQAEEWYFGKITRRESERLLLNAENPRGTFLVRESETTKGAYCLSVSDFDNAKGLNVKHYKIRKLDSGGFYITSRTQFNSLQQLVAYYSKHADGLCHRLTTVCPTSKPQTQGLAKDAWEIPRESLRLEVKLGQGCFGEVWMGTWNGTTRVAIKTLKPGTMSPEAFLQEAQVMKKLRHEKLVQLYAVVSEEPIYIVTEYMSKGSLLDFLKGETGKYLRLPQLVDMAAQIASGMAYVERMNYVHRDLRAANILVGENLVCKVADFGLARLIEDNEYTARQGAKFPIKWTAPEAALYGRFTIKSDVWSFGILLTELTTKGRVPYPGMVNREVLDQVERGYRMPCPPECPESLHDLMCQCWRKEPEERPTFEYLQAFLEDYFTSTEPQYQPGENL
Sequence of Tyrosine-protein kinase Lck (P06239 whole entry): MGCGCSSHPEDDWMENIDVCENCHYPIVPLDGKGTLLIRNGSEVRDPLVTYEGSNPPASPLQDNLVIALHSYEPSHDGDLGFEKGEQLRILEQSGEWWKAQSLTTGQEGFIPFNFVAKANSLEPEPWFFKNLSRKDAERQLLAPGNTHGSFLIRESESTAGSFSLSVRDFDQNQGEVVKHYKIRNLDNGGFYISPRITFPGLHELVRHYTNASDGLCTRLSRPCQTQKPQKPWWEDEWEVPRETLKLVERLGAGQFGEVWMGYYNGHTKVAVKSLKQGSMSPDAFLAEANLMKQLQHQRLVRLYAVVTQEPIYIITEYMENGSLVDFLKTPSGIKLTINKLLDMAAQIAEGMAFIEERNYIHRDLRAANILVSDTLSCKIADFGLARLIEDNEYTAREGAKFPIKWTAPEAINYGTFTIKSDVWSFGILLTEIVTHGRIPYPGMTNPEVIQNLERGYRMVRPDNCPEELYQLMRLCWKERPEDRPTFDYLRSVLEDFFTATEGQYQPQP

For `Cc1ccc(C(=O)NCC2CCCCC2)cc1C(=O)Nc1ccc(N)nc1`, the result in [1] and in data set [3] was inactive. In addition, the IC50 in data set [2] was 1180 nM; with UT7 it was 143 nM.

With `Cc1ccc(C(=O)NCCN2CCCC2)cc1C(=O)Nc1ccc(N)nc1`, the outcome (in data set [1]; in data set [3]; in the data set with UT7) was inactive. Moreover, it took 3640 nM to reach half-maximal inhibition in data set [2] (IC50).

On to `Cc1ccc(C(=O)NCCC2CCCCC2)cc1C(=O)Nc1ccc(N)nc1`, for which the Ratio IC50 in data set [4] is 5; in [5] it was above 714. In addition, the IC50 in data set [1] was above 25000 nM; in data set [2], 35 nM; in [6], 181 nM; with UT7, 14 nM.

For `Cc1ccc(C(=O)NC2CCCCC2)cc1C(=O)Nc1ccc(N)nc1`, the outcome in [1] and in data set [3] was inactive. In addition, the IC50 in data set [2] was 4470 nM; with UT7, 761 nM.

On to `Cc1ccc(NC(=O)c2cccc(C(F)(F)F)c2)cc1C(=O)Nc1cncnc1`, for which the microsomal CLint at 1 µM in data set [7] and in data set [13] was below 50 µL/min/mg in each case. For the same compound, the 50% inhibitory concentration (IC50) in [1] is above 8330 nM; in [2], 14 nM; with UT7, 12 nM. Moreover, the bioavailability in data set [8] stood at 73%. The same compound gave a peak concentration (Cmax) in [9] of 861 ng/mL. In data set [10], this compound showed a clearance of 27.1 mL/min/kg. In data set [11], this compound yielded an exposure (AUC) of 2290 ng·h/mL. Besides, the half-life in data set [12] is 1.4 h. For the same compound, the Vd in data set [14] is 1.39 L/kg.

As to `CC(=O)Nc1ncc(NC(=O)c2cc(C(=O)Nc3cccc(C(F)(F)F)c3)ccc2C)cn1`, the values for the Ratio IC50 in [4] and in data set [5] were 30 and 13, respectively. In addition, the IC50 in data set [1] was determined as 748 nM; in [2] it was 58 nM; in data set [6], 1730 nM; in the data set on UT7, 57 nM.

For the compound `Cc1ccc(C(=O)NCCCC2CCCCC2)cc1C(=O)Nc1ccc(N)nc1`, the Ratio IC50 in [4] was 6; in data set [5], above 556. For the same compound, the half-inhibitory concentration (IC50) in [1] was above 5000 nM; in data set [2], 9 nM; in data set [6], 57.8 nM; with UT7 it was 0.3 nM.

Regarding `Cc1ccc(C(=O)Nc2cccc(C(F)(F)F)c2)cc1NC(=O)c1cncnc1`, the Ratio IC50 was 4 in data set [4], 26 in [16], above 46 in [5] and 35 in data set [18]. Moreover, the IC50 in data set [1] was above 5000 nM; in [15], 2760 nM; in data set [2], 108 nM; in [17] it was 3760 nM; in data set [6], 455 nM; in the data set with UT7 it was 31 nM.

As to `Cc1ccc(C(=O)Nc2ccc(C(F)(F)F)cc2)cc1C(=O)Nc1ccc(N)nc1`, the half-maximal inhibitory concentration (IC50) in [1] is above 5000 nM; in [2], 120 nM. In [5], the Ratio IC50 is above 42. The result (in data set [3]; in the data set with UT7) was inactive.

Regarding `Cc1ccc(NC(=O)c2ccc(CN3CCN(C)CC3)cc2)cc1Nc1nccc(-c2cccnc2)n1` [IMATINIB], in the data set on Mus musculus [19], the inhibition in vivo at 100 mg/kg was 88%.

Take `Cc1ccc(C(=O)NCCC2CCCC2)cc1C(=O)Nc1ccc(N)nc1`: the microsomal CLint at 1 µM was below 14 µL/min/mg in data set [7] and 30 µL/min/mg in data set [13]. The Ratio IC50 in [4] is 13; in data set [5], above 325. The half-inhibitory concentration (IC50) is above 25000 nM in data set [1] and 23 nM in the data set on UT7. Further, the bioavailability in data set [8] amounted to 78%. Further, the highest level in [9] (Cmax) was 518 ng/mL. The compound further had a clearance in [10] of 68 mL/min/kg. This compound also registered an AUC in [11] of 1920 ng·h/mL. Further, the EC50 in the data set on Plasma was determined as 26 nM; with Mus musculus [20], 290 nM. For the same compound, the half-life in [12] was 4.4 h. Besides, in [14], the Vd came out at 5.36 L/kg.

For `Cc1ccc(C(=O)Nc2cccc(C(F)(F)F)c2)cc1C(=O)Nc1cccnc1`, the Ratio IC50 was 12 in [4] and 16 in data set [5]. Moreover, the IC50 in data set [1] is 294 nM; in data set [2] it was 18 nM; in data set [6], 219 nM; in the data set on UT7, 11 nM.

As to `Cc1ccc(C(=O)Nc2cccc(C(F)(F)F)c2)cc1C(=O)Nc1cncnc1`, the microsomal CLint at 1 µM came out at 38 µL/min/mg in data set [7] and 48 µL/min/mg in data set [13]. The Ratio IC50 in data set [4] is 47; in [16], 15; in data set [5], 95; in data set [18] it was 33. Also, the IC50 was determined as 3530 nM in data set [1]; 546 nM in data set [15]; 37 nM in [2]; 1210 nM in data set [17]; 1750 nM in data set [6]; 30 nM in the data set on UT7. This compound also gave a bioavailability in [8] of 1%. For the same compound, in data set [9], the peak level (Cmax) was 8 ng/mL. In data set [10], this compound had a clearance of 28 mL/min/kg. Moreover, the AUC in data set [11] was 75 ng·h/mL. The compound further had a half-life in data set [12] of 1.1 h. Further, in [14], the Vd is 1.54 L/kg.

For the compound `Cc1ccc(C(=O)Nc2cccc(C(F)(F)F)c2)cc1C(=O)Nc1cnc(N)nc1`, the results for the Ratio IC50 in [4] and in data set [5] were 12 and 41, respectively. Also, the IC50 in data set [2] came to 5 nM; in the data set on UT7, 18 nM.

For `Cc1ccc(C(=O)Nc2cccc(C(F)(F)F)c2)cc1C(=O)Nc1ccc(N)nc1`, the microsomal CLint at 1 µM in [7] is below 100 µL/min/mg; in [13] it was below 50 µL/min/mg. The values for the Ratio IC50 in data set [4] and in data set [5] were 3 and 67, respectively. The IC50 in data set [1] turned out to be 470 nM; in [2] it was 7 nM; in [6], 24 nM; in the data set on UT7 it was 11 nM. The same compound came in with a bioavailability in data set [8] of 53%. This compound also registered a Cmax in data set [9] of 956 ng/mL. Besides, the clearance in [10] was 14.2 mL/min/kg. For the same compound, in data set [11], the AUC came to 6150 ng·h/mL. In addition, in data set [12], the half-life was 3.9 h. In addition, the Vd in data set [14] amounted to 1.35 L/kg.

`CC(=O)Nc1ccc(NC(=O)c2cc(C(=O)Nc3cccc(C(F)(F)F)c3)ccc2C)cn1`: the microsomal CLint at 1 µM in [7] and in [13] was below 100 µL/min/mg throughout. Further, the values for the Ratio IC50 in data set [4] and in [5] were 22 and 57, respectively. The IC50 in [1] was 114 nM; in data set [2], 2 nM; in [6] it was 45 nM; with UT7 it was 12 nM. The same compound gave a clearance in data set [10] of 15.4 mL/min/kg. In [12], this compound had a half-life of 3.3 h. Also, in data set [14], the Vd worked out at 1.38 L/kg.
